Laboratory results reported in patent publication US10508085B2, “Compounds and methods for IDO and TDO modulation, and indications therefor” (Plexxikon Inc., priority 2016, dated 2019).

What was measured:
[1] = biological target: T1, Human Indoleamine 2,3-dioxygenase (IDO) (Homo sapiens, UniProt P14902); assay: Human IDO enzymatic assay (kynurenine level); format: biochemical; conditions: 6 nM IDO, 10 μM L-Trp; geometric mean; read-out: IDO1 GMean: IC50 (μM) (Biochemical Assay)
T1 construct: His tag (N); made in house; host or cells: E. coli
T1 sequence (P14902 whole entry): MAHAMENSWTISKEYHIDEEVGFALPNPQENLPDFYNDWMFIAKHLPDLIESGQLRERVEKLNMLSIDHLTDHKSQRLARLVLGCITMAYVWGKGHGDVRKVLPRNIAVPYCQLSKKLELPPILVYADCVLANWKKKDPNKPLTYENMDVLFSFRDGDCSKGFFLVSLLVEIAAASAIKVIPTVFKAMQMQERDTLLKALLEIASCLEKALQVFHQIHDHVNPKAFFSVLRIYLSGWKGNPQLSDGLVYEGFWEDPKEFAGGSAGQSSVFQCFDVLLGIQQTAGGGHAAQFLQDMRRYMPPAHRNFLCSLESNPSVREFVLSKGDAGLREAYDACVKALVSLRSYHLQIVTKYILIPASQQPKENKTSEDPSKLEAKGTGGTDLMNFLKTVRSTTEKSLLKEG
Method in brief: (§1)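 Compound is mixed with His-tagged enzyme from E. coli in pH 6.5 phosphate buffer containing ascorbate, methylene blue and catalase, at room temperature. IDO uses 6 nM enzyme and 10 μM Trp for 20 min. TDO uses 1 nM enzyme and 350 μM Trp for 70 min. TCA stops the reaction, and IC50 is derived from kynurenine levels.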

[2] = biological target: T2, Human Tryptophan 2,3-dioxygenase (TDO) (Homo sapiens, UniProt P48775); assay: Human TDO enzymatic assay (kynurenine level); format: biochemical; conditions: 1 nM TDO, 350 μM L-Trp; geometric mean; read-out: TDO GMean: IC50 (μM) (Biochemical Assay)
T2 construct: His tag (N); made in house; host or cells: E. coli
T2 sequence (P48775 whole entry): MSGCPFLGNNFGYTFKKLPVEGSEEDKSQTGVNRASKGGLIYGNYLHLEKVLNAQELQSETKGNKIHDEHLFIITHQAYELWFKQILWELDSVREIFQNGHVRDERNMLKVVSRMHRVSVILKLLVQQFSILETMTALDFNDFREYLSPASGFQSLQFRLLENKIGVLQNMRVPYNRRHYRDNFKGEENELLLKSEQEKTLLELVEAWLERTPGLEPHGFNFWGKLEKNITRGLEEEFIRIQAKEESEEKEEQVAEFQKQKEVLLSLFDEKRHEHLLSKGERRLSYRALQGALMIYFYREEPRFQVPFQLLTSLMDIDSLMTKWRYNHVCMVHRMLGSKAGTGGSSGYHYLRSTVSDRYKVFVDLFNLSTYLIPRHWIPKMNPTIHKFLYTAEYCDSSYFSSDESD
Method in brief: as §1

Row | SMILES | IC50 [1] [µM] | IC50 [2] [µM]
1 | CC(C)(C1CCN(C(=O)NCc2cccnc2)CC1)[C@H](O)c1cc(Cl)cc2cn[nH]c12 [Compound P-0679, (S)-4-(1-(5-chloro-1H-indazol-7-yl)-1-hydroxy-2-methylpropan-2-yl)-N-(pyridin-3-ylmethyl)piperidine-1-carboxamide] | 0.0001 to 10 | 0.0001 to 10
2 | CC(C)(C1CCN(C(=O)N[C@H]2CCOC2)CC1)[C@H](O)c1cc(Cl)cc2cn[nH]c12 [Compound P-0589, 4-((S)-1-(5-chloro-1H-indazol-7-yl)-1-hydroxy-2-methylpropan-2-yl)-N-((S)-tetrahydrofuran-3-yl)piperidine-1-carboxamide] | 0.0001 to 10 | 0.0001 to 10
3 | O=C(Cc1ccc(F)c(Cl)c1)N1CCC(C(F)(F)[C@H](O)c2c3c(cc4cn[nH]c24)CC3)CC1 [Compound P-0625, (R)-2-(3-chloro-4-fluorophenyl)-1-(4-(2-(5,6-dihydro-1H-cyclobuta[f]indazol 7-yl)-1,1-difluoro-2-hydroxyethyl)piperidin-1-yl) ethan-1-one] | 0.0001 to 10 | 0.0001 to 10
4 | CC(C)(C1CCN(C(=O)C2(F)CC2)CC1)C(O)c1cc(Cl)cc2[nH]ncc12 (stereo not shown) [Compound P-0661, (4-(1-(6-chloro-1H-indazol-4-yl)-1-hydroxy-2-methylpropan-2-yl)piperidin-1-yl)(1-fluorocyclopropyl) methanone] | 0.0001 to 10 | 0.0001 to 10
5 | CC(C)(C1CCN(C(=O)C(F)(F)F)CC1)[C@H](O)c1cc(Cl)cc2cn[nH]c12 [Compound P-0663, (S)-1-(4-(1-(5-chloro-1H-indazol-7-yl)-1-hydroxy-2-methylpropan-2-yl)piperidin-1-yl)-2,2,2-trifluoroethan-1-one] | 0.0001 to 10 | 0.0001 to 10
6 | O=C(CC1CCOCC1)N1CCC(C(F)(F)[C@H](O)c2c3c(cc4cn[nH]c24)CC3)CC1 [Compound P-0617, (R)-1-(4-(2-(5,6-dihydro-1H-cyclobuta[f]indazol-7-yl)-1,1-difluoro-2-hydroxyethyl)piperidin-1-yl)-2-(tetrahydro-2H-pyran-4-yl)ethan-1-one] | 0.0001 to 10 | 0.0001 to 10
7 | OC(c1cccc(C(F)(F)F)c1)c1cccc2cncn12 (stereo not shown) [Compound P-0078, imidazo[1,5-a]pyridin-5-yl(3-(trifluoromethyl)phenyl)methanol] | 0.0001 to 10 | 10 to 100
8 | CC(C)(C1CCN(C(=O)CC2CCS(=O)(=O)CC2)CC1)C(O)c1cc(Cl)cc2[nH]ncc12 (stereo not shown) [Compound P-0610, 1-(4-(1-(6-chloro-1H-indazol-4-yl)-1-hydroxy-2-methylpropan-2-yl)piperidin-1-yl)-2-(1,1-dioxidotetrahydro-2H-thiopyran-4-yl)ethan-1-one] | 0.0001 to 10 | 0.0001 to 10
9 | O=C(CO)N1CCC(C(F)(F)[C@H](O)c2c3c(cc4cn[nH]c24)CC3)CC1 [Compound P-0615, (R)-1-(4-(2-(5,6-dihydro-1H-cyclobuta[f]indazol-7-yl)-1,1-difluoro-2-hydroxyethyl)piperidin-1-yl)-2-hydroxyethan-1-one] | 0.0001 to 10 | 0.0001 to 10
10 | CC(C)(C1CCN(/C(N)=N/C#N)CC1)C(O)c1cc(Cl)cc2cn[nH]c12 (stereo not shown) [Compound P-0573, (E)-4-(1-(5-chloro-1H-indazol-7-yl)-1-hydroxy-2-methylpropan-2-yl)-N′-cyanopiperidine-1-carboximidamide] | 0.0001 to 10 | 0.0001 to 10
11 | CC1(C)C(C(=O)N2CCC(C(F)(F)[C@H](O)c3c4c(cc5cn[nH]c35)CC4)CC2)C1(C)C [Compound P-0616, (R)-(4-(2-(5,6-dihydro-1H-cyclobuta[f]indazol-7-yl)-1,1-difluoro-2-hydroxyethyl)piperidin-1-yl)(2,2,3,3-tetramethylcyclopropyl) methanone] | 0.0001 to 10 | 10 to 100
12 | N#Cc1ccc(NC(=O)N2CCC(C(F)(F)[C@H](O)c3c4c(cc5cn[nH]c35)CC4)CC2)cc1 [Compound P-0638, (R)-N-(4-cyanophenyl)-4-(2-(5,6-dihydro-1H-cyclobuta[f]indazol-7-yl)-1,1-difluoro-2-hydroxyethyl) piperidine-1-carboxamide] | 0.0001 to 10 | 0.0001 to 10
13 | CC(C)(C1CCN(C(=O)Nc2ccc(F)cc2)CC1)C(O)c1cc(Cl)cc2[nH]ncc12 (stereo not shown) [Compound P-0660, 4-(1-(6-chloro-1H-indazol-4-yl)-1-hydroxy-2-methylpropan-2-yl)-N-(4-fluorophenyl) piperidine-1-carboxamide] | 0.0001 to 10 | 0.0001 to 10
14 | COc1ccc(CNC(=O)N2CCC(C(C)(C)[C@H](O)c3cc(Cl)cc4cn[nH]c34)CC2)cn1 [Compound P-0585, (S)-4-(1-(5-chloro-1H-indazol-7-yl)-1-hydroxy-2-methylpropan-2-yl)-N-((6-methoxypyridin-3-yl)methyl)piperidine-1-carboxamide] | 0.0001 to 10 | 0.0001 to 10
15 | CC(C)(O)CNC(=O)N1CCC(C(C)(C)[C@H](O)c2cc(Cl)cc3cn[nH]c23)CC1 [Compound P-0666, (S)-4-(1-(5-chloro-1H-indazol-7-yl)-1-hydroxy-2-methylpropan-2-yl)-N-(2-hydroxy-methylpropyl) piperidine-1-carboxamide] | 0.0001 to 10 | 0.0001 to 10
16 | OC(c1cccc(-n2ccnc2)c1)c1cccc2cncn12 (stereo not shown) [Compound P-0070, (3-(1H-imidazol-1-yl)phenyl)(imidazo[1,5-a]pyridin-5-yl)methanol] | 100 to 200 | 100 to 200
17 | CN(C)c1cccc(C(O)c2cccc3cncn23)c1 (stereo not shown) [Compound P-0072, (3-(dimethylamino)phenyl)(imidazo[1,5-a]pyridin-5-yl)methanol] | 10 to 100 | 10 to 100
18 | CCCOc1ccc(C(O)c2cccc3cncn23)cc1 (stereo not shown) [Compound P-0064, imidazo[1,5-a]pyridin-5-yl(4-propoxyphenyl)methanol] | 0.0001 to 10 | 10 to 100
19 | CC1(C(O)c2cc(Cl)c(F)c3cn[nH]c23)CC(F)(F)C1 (stereo not shown) [Compound P-0650, (5-chloro-4-fluoro-1H-indazol-7-yl)(3,3-difluoro-1-methylcyclobutyl)methanol] | 0.0001 to 10 | 0.0001 to 10
20 | COc1ccc(NC(=O)N2CCC(C(C)(C)C(O)c3cc(Cl)cc4cn[nH]c34)CC2)cn1 (stereo not shown) [Compound P-0605, 4-(1-(5-chloro-1H-indazol-7-yl)-1-hydroxy-2-methylpropan-2-yl)-N-(6-methoxypyridin-3-yl)piperidine-1-carboxamide] | 0.0001 to 10 | 0.0001 to 10
21 | COCCNC(=O)N1CCC(C(F)(F)[C@H](O)c2c3c(cc4cn[nH]c24)CC3)CC1 [Compound P-0630, (R)-4-(2-(5,6-dihydro-1H-cyclobuta[f]indazol-7-yl)-1,1-difluoro-2-hydroxyethyl)-N-(2-methoxyethyl) piperidine-1-carboxamide] | 0.0001 to 10 | 0.0001 to 10
22 | CN(C)C(=O)N1CCC(C(C)(C)[C@H](O)c2cc(Cl)cc3cn[nH]c23)CC1 [Compound P-0662, (S)-4-(1-(5-chloro-1H-indazol-7-yl)-1-hydroxy-2-methylpropan-2-yl)-N,N-dimethylpiperidine-1-carboxamide] | 0.0001 to 10 | 0.0001 to 10
23 | O=C(c1ccc(C(F)(F)F)nc1)N1CCC(C(F)(F)[C@H](O)c2c3c(cc4cn[nH]c24)CC3)CC1 [Compound P-0620, (R)-(4-(2-(5,6-dihydro-1H-cyclobuta[f]indazol-7-yl)-1,1-difluoro-2-hydroxyethyl)piperidin-1-yl)(6-(trifluoromethyl)pyridin-3-yl)methanone] | 0.0001 to 10 | 0.0001 to 10
24 | C[C@H](O)CNC(=O)N1CCC(C(C)(C)[C@H](O)c2cc(Cl)cc3cn[nH]c23)CC1 [Compound P-0671, 4-((S)-1-(5-chloro-1H-indazol-7-yl)-1-hydroxy-2-methylpropan-2-yl)-N-((S)-2-hydroxypropyl) piperidine-1-carboxamide] | 0.0001 to 10 | 0.0001 to 10
25 | O=C(Cc1ccc(Cl)c(F)c1)N1CCC(C(F)(F)[C@H](O)c2cc(Cl)cc3cn[nH]c23)CC1 [Compound P-0571, (R)-1-(4-(2-(5-chloro-1H-indazol-7-yl)-1,1-difluoro-2-hydroxyethyl)piperidin-1-yl)-2-(4-chloro-3-fluorophenyl)ethan-1-one] | 0.0001 to 10 | 0.0001 to 10
26 | CC(C)(C1CCN(C(=O)NCCCF)CC1)[C@H](O)c1cc(Cl)cc2cn[nH]c12 [Compound P-0596, (S)-4-(1-(5-chloro-1H-indazol-7-yl)-1-hydroxy-2-methylpropan-2-yl)-N-(3-fluoropropyl) piperidine-1-carboxamide] | 0.0001 to 10 | 0.0001 to 10
27 | CC(C)(C1CCN(C(=O)NCC2CCC2)CC1)[C@H](O)c1cc(Cl)cc2cn[nH]c12 [Compound P-0582, (S)-4-(1-(5-chloro-1H-indazol-7-yl)-1-hydroxy-2-methylpropan-2-yl)-N-(cyclobutylmethyl) piperidine-1-carboxamide] | 0.0001 to 10 | 0.0001 to 10
28 | CC(C)(C1CCN(C(=O)NCCCO)CC1)[C@H](O)c1cc(Cl)cc2cn[nH]c12 [Compound P-0665, (S)-4-(1-(5-chloro-1H-indazol-7-yl)-1-hydroxy-2-methylpropan-2-yl)-N-(3-hydroxypropyl) piperidine-1-carboxamide] | 0.0001 to 10 | 0.0001 to 10
29 | CC(C)(C1CCN(C(=O)Nc2ccccc2)CC1)C(O)c1cc(Cl)cc2[nH]ncc12 (stereo not shown) [Compound P-0603, 4-(1-(6-chloro-1H-indazol-4-yl)-1-hydroxy-2-methylpropan-2-yl)-N-phenylpiperidine-1-carboxamide] | 0.0001 to 10 | 0.0001 to 10
